Values belong to the compound of their own block, whether it stands above or below them. Where a SMILES comes first, the peptide text is derived from it. [ ]: non-standard residue; d: D form. The star is where a group is joined. pT = C[C@@H](OP(=O)(O)O)[C@H](N)C(=O)O; Cbz = O=C(OCc1ccccc1)*
What was measured:
[1] = tested on: FBXW7-mediated protein degradation; assay: Ratiometric DsRed/EGFP protein level assay of full-length proteins with kinase inhibitors; type: cell-based, HEK293T cells; conditions: for ZMIZ1 level: full-length ZMIZ1, HEK293T + FBXW7, inhibitor 2 µM
Description: (§1) HEK293T cells (purchased from ATCC, CRL-3216) were cultured in Dulbecco’s Modified Eagle’s Medium (DMEM, Gibco, Waltham, MA, USA) containing 10% FBS (Gibco, Cat# 10500064), 100 µg/mL Pen/strep (Sigma, P0781) and Amphotericin B (Thermo Fisher, 15290026) at 37 °C in an atmosphere of 5% CO2. Approximately 90,000 cells were plated in 24-well Greiner bio-one plates (#662-160). The next day cells were transfected with Lipofectamine 3000 reagent (L3000001, Invitrogen, Waltham, MA, USA) using the Opti-MEM reduced serum media (Gibco, 31985062). The transfection media was changed with complete DMEM after 4–6 h of transfection. Cells in a 24-well plate were transfected with 500 ng of plasmid DNA in total, for co-transfection each plasmid construct was used in 250 ng amount. For western blots, cells were washed in ice-cold PBS and harvested in SDS loading buffer and then subjected to SDS-PAGE. The samples were then transferred to nitrocellulose membrane. Primary antibodies were the following: Anti-V5 (Invitrogen; 1:5000 dilution), anti-FLAG (Sigma #F1804; 1:5000 dilution), anti-cMyc (#2276, Cell signaling, Danvers, MA, USA) 1:1000 dilution) and anti-tubulin (Sigma #T6199; 1:50,000 dilution). Secondary antibodies (IRDye® 800CW Goat anti-Mouse IgG, LiCOR #926-32210 and IRDye® 680CW Goat anti-Mouse IgG, LiCOR #926-68070; 1:5000 dilution) were used according to the recommendation of the manufacturer and blots were analyzed by Odyssey CLx imaging system (Li-Cor). Kinase inhibitors were used in 2 µM concentration added 6 h before protein level measurements: GSK3—CHR99021 (#S2924, Selleckchem, Munich, Germany), ERK1/2—SCH772984 (Selleckchem, #S7101), p38—SB202190 (Sigma-Aldrich, #S7067), and JNK—JNK-IN-8 (Selleckchem, #S4901). MG132 proteosomal inhibitor (Merck, #474790) was used in 10 µM concentration and cycloheximide (# 239763, Calbiochem, San Diego, CA, USA) was used in 100 µg/mL concentration. HEK293T cells were washed with 500 μL ice-cold PBS twice and gently collected using a pipette 48 h after transfection. The suspension was centrifuged at 500× g for 10 min at 4 °C. After centrifugation, the cell pellet was resuspended in 110 µL ice cold PBS and the fluorescence signal for EGFP (Excitation 485 nm; Emission 515 nm) and DsRed (Excitation 550 nm; Emission 580 nm) was measured in Corning 384-well microplate (#4514) using a plate reader (CytationTM 3, BioTek Instruments, Winooski, VT, USA).

[2] = tested on: FBXW7-mediated protein degradation; assay: Western blot of protein levels in FBXW7-transfected cells; type: cell-based, HEK293T cells; conditions: MG132 10 µM
Description: as §1, with “concentration.” for “concentration. HEK293T cells were washed with 500 μL ice-cold PBS twice and gently collected using a pipette 48 h after transfection. The suspension was centrifuged at 500× g for 10 min at 4 °C. After centrifugation, the cell pellet was resuspended in 110 µL ice cold PBS and the fluorescence signal for EGFP (Excitation 485 nm; Emission 515 nm) and DsRed (Excitation 550 nm; Emission 580 nm) was measured in Corning 384-well microplate (#4514) using a plate reader (CytationTM 3, BioTek Instruments, Winooski, VT, USA).”

FBXW7 = assay: Ratiometric EGFP/DsRed protein degradation assay with degron probes; type: cell-based, human
Excerpt: In order to be able to test putative phosphodegron motifs, a ratiometric protein level monitoring method was adapted to monitor MAPK controlled FBXW7 mediated protein degradation. Briefly, intact DsRed and an EGFP-chimera were expressed in HEK293T cells in equal amounts from an expression plasmid, giving an EGFP/DsRed fluorescence ratio close to one under non-degrading conditions. EGFP was fused to a probe comprised of a putative degron sequence and a known MAPK binding docking motif. EGFP signal is expected to diminish faster than DsRed in cells with more FBXW7 if the probe responded to degradation.
We started out from an intentionally general consensus motif of FBXW7 degrons, inspired by the liberal [TS]P..[TS]P pattern defined for yeast Cdc4 substrates, and scanned the human disordered part of the proteome using SliMSearch4 (the disorder score cut-off was 0.4 and flank length was 5). In all, 22 motifs from this list were subjectively chosen and tested in the ratiometric degradation assay giving only 5 positives (see Supplementary Table S1). Based on the results of this first round, by taking information both from the identified positives and negatives, the consensus motif definition was narrowed to requiring a proline at P + 2, but motifs were allowed to have a phospho-mimicking residue (D or E) at P + 4 because it had been formerly reported that this second phosphorylatable residue may be replaced by aspartate or glutamate. […] In the third round, hydrophobic amino acids were more strictly required at positions −1/−2 and P − 1/2/3 positions were further narrowed and P + 4 position was relaxed based on the identified negatives, which gave a higher hit rate (4 out of 6). This third round gave functional motifs at a good rate, but the used motif definition was very restrictive compared to other known motifs. Finally, in the fourth round, we gave up using an optimal consensus and established the positional relaxation model. […] Hits on this final, most predictive list are presented in Supplementary Table S2. All entries were filtered for motif locations by UniProt annotations, discarding all enzyme-inaccessible (e.g., extracellular) instances. Motifs that had any overlapping PFAM domain indicated were manually assessed using the AlphaFold EBI website. Out of these, only motifs that were highly accessible and located outside of confidently predicted folded domains were kept. We also added kinase consensus compatibility to every motif and the number of experiments where phosphorylation could be detected from PhosphoSitePlus.
The chimera degron module was ordered from IDT as gene Block (gBlock). It consisted of a coiled coil dimerization motif (GCN4: EELLSKNYHLENEVARLKK) to increase sensitivity by allowing multivalent binding, a MAPK binding docking motif (AAKG2: KKNASQKRRSLRVHIPDL), and the CycECO degron motif. The motifs were separated by Gly-Ser-Asn linkers and the gBlock was designed so that the motifs could be easily changed by using unique sets of restriction endonucleases. The gBlock was sub-cloned into the Gateway pENTR4 entry plasmid (Thermo Fisher, Waltham, MA, USA) using restriction enzymes (SalI and NotI). The pENTR4-chimera and the destination plasmid (MSCV-CMV-DsRed-IRES-EGFP-DEST from Addgene; 41941), [28]) were subjected to gateway cloning using LR clonase II enzyme (Invitrogen) to obtain the first DsRed-EGFP-chimera DNA construct containing the cycECO degron. Oligonucleotides corresponding to different degron sequences and docking motifs were ligated into the DsRed-EGFP-chimera DNA construct. The list of all the oligonucleotides used for cloning is provided in Supplementary Table S3. pcDNA3-FLAG-FBXW7α was a kind gift from Michael Pagano (New York University). The FBXW7 arginine mutant (Arg mutant: R465C; R479Q; R505L) was created using two-step PCR and cloned into the pcDNA3-FLAG plasmid. […]

Skp1-FBXW7 complex = molecular target: T1, Skp1-FBXW7 complex (Homo sapiens, UniProt P63208+Q969H0); assay: Fluorescence polarization competitive protein-peptide binding assay; conditions: for binding affinity to purified FBXW7 in vitro: FP based quantitative in vitro binding assay, result in words
T1 construct: human FBXW7 (263-707) with an N-terminal hexa-histidine (His6) tag; His6 (N, cleaved yes); made in house; host or cells: E. coli Rosetta (DE3)
T1 sequence (Q969H0 263-707): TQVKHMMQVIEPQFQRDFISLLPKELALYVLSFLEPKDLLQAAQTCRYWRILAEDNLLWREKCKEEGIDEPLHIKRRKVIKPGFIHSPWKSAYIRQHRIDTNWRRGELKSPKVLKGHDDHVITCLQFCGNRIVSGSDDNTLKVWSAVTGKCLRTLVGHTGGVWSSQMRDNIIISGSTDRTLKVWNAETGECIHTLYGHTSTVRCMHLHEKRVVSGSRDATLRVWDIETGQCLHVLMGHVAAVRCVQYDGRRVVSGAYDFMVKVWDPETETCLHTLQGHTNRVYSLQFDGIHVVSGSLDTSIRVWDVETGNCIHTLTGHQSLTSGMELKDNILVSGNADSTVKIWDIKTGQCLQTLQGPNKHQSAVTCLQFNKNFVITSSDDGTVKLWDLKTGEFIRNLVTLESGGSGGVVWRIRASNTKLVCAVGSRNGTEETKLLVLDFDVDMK
T1 sequence (P63208 1-149 partner limits assumed): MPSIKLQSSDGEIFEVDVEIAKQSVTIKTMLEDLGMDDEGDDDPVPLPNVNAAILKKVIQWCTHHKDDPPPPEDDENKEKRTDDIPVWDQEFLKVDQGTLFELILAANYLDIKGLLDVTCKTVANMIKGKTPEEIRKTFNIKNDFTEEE
Description: Truncated Skp1 (1-149) and human FBXW7 (263-707) with an N-terminal hexa-histidine (His6) tag were cloned into a bicistronic plasmid (pMG950) and were co-expressed in E. coli Rosetta (DE3) strain. The Skp1-FBXW7 complex was purified using affinity, anion exchange, and gel filtration chromatography. The DNA expression plasmid was transformed into E. coli Rosetta (DE3) strain and grown in LB until OD600 = 0.5, protein expression was induced with 100 µM isopropyl-β-d-1-thigalatopyaranoside (IPTG) overnight at 18 °C. The cell pellet was lysed, and the recombinant protein was purified using Ni-NTA agarose beads. Before further purification the His6-tag was removed by using the TEV protease and then the protein complex was further purified using anion exchange chromatography twice, first with a Resource Q and then with a Mono Q column (pH = 8). Finally, the complex was subjected to size-exclusion chromatography in 20 mM Tris, pH = 8, 150 mM NaCl, and 1 mM DTT using a Superdex200 10/300 column (GE Healthcare, Chicago, IL, USA). The eluted fractions were pooled together and were supplemented with 10% glycerol and 2 mM TCEP before concentration and storage.
Fluoresce polarization (FP) based protein–peptide binding affinity measurements were carried out using 50 nM carboxyfluorescein (CF) labeled CCNE peptide (CF-PSGLLpTPPQpSGKKQ) and data were fit to a direct or a competitive binding equation using OriginPro 2018 as described earlier. For the direct measurements the concentration of Skp1-FBXW7 complex was increased in a titration experiment and then the binding affinity (Ki) of the unlabeled peptide was determined by titrating the Skp1-FBXW7: labelled peptide complex sample, at a concentration corresponding to ~60–80% complex formation, with increasing amounts of unlabeled peptide. All the FP measurements were performed in 20 mM Tris (pH 8.0), 100 mM NaCl, 0.05% Brij35P, and 2 mM TCEP using a Cytation^TM 3 (BioTek Instruments) plate reader (384-well plates in 20 µL binding reaction volume). Peptides were chemically synthesized and were ordered from GenScript.

Compound: Cc1cnc(-c2cnc(NCCNc3ccc(C#N)cn3)nc2-c2ccc(Cl)cc2Cl)[nH]1 [CHR99021]
effect on FBXW7-mediated degradation of full-length constructs ([1]; HEK293T, inhibitor 2 µM added 6 h before DsRed/EGFP measurement): no effect

Compound: Cc1cc(NC(=O)c2cccc(NC(=O)/C=C/CN(C)C)c2)ccc1Nc1nccc(-c2cccnc2)n1 [JNK-IN-8]
effect on ARID4B level ([1]; full-length ARID4B, HEK293T + FBXW7, inhibitor 2 µM, 6 h): significant effect
ZMIZ1 level ([1]; 6 h): affected

Compound: CC(C)C[C@@H](C=O)NC(=O)[C@H](CC(C)C)NC(=O)[C@H](CC(C)C)NC(=O)OCc1ccccc1 [MG132] (Cbz-Leu-Leu-Leu-aldehyde)
protein level of the CycECO-V5 probe ([2]; HEK293T transfected with FBXW7 plasmid, anti-V5 western blot): counteracted the effect of FBXW7 expression
protein levels of full-length constructs in the presence of FBXW7 ([2]; KLF4, ETV5, ARID4B, CDT1, ZMIZ1, JAZF1 V5-tagged constructs, HEK293T, western blot): counteracted the effect of FBXW7
CycEco-EGFP probe degradation (FBXW7; HEK293T + FBXW7, MG132, EGFP/DsRed ratio): blocked

Compound: LGPPPGLLTPPVATELSQN [CCAR2, synthetic peptide of the CCAR2 motif, P + 4 nonphospho class]
Outcome (FBXW7; putative degron motif in EGFP-fused probe with AAKG2 MAPK docking motif, HEK293T, 48 h after transfection, EGFP/DsRed ratio with and without FBXW7 plasmid, search cycles 1-4): Positive (tested positive, where +FBXW7/control protein level ratio was lower than 1)
binding affinity to purified FBXW7 in vitro (Skp1-FBXW7 complex): low micromolar

Now from value to compound:

ZMIZ1 level ([1]; 6 h): affected
Compound: O=C(Nc1ccc2[nH]nc(-c3ccncc3)c2c1)[C@@H]1CCN(CC(=O)N2CCN(c3ccc(-c4ncccn4)cc3)CC2)C1 [SCH772984]

binding affinity to purified FBXW7 in vitro (Skp1-FBXW7 complex): low nanomolar
Kd (Skp1-FBXW7 complex; FP competition of unlabeled peptide against 50 nM CF-labeled CCNE peptide at ~60-80% complex formation, 20 mM Tris pH 8.0, 100 mM NaCl, 0.05% Brij35P, 2 mM TCEP, value with error): 52.3 ± 2.6 nM
Compound: CSCC[C@H](NC(=O)[C@@H]1CCCN1C(=O)[C@@H]1CCCN1C(=O)[C@@H](NC(=O)[C@@H]1CCCN1C(=O)[C@H](CC(N)=O)NC(=O)CNC(=O)[C@@H]1CCCN1C(=O)[C@@H](NC(=O)[C@@H]1CCCN1)C(C)C)[C@@H](C)OP(=O)(O)O)C(=O)N[C@H](C(=O)N1CCC[C@H]1C(=O)NCC(=O)N[C@@H](CO)C(=O)N[C@@H](CO)C(=O)O)[C@@H](C)OP(=O)(O)O [ZMIZ1] (H-PVPGNP[pT]PPM[pT]PGSS-OH)

From paper PMC8955265, “Systematic Discovery of FBXW7-Binding Phosphodegrons Highlights Mitogen-Activated Protein Kinases as Important Regulators of Intracellular Protein Levels” (International Journal of Molecular Sciences, 2022)
